Consider five compounds from patent US9770026B2, “Substituted pyrimidine compound and uses thereof” (Shenyang Sinochem Agrochemicals R&D Co., Ltd., priority 2012, dated 2017).

Molecules are shown by their SMILES.

For one test, the system named is Diamond back moth. The experiment in a line: insecticidal activity against diamond back moth, airbrush spray. In kind it is in vivo. In a few lines:
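Airbrush leaf-disc spray test: both faces of 2 cm cabbage discs received 0.5 ml of test solution at 0.7 kg/cm^2. Solutions were made in acetone:methanol (1:1) and brought to concentration with 0.1% Tween 80 in water. Ten second-instar larvae per disc, triplicates, were held at 25° C and 60˜70% R.H., with mortality recorded at 72 hrs.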

Another test deals with armyworm. The experiment in a line: bioactivity test against armyworm, airbrush spray. Type of test: in vivo.
For another test, the system named is carmine spider mite. The experiment in a line: bioactivity test against carmine spider mite, airbrush spray. Type of test: in vivo. A digest of the protocol:
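Broadbean seedlings infested with adult mites were sprayed with compound (acetone/methanol stock diluted in 0.1% Tween 80 water) by airbrush at 0.7 kg/cm^2, 0.5 ml. Three replicates were run. Mortality was scored after 72 hrs.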

A further test has as its system corn rust. The experiment in a line: protectant activity in vivo against corn rust.
Another test concerns wheat powdery mildew. The test is described as follows: protectant activity in vivo against wheat powdery mildew. The following applies: for pest or weed control at 6.25 µg/mL: read-out: control effect against wheat powdery mildew (%), 6.25 mg/L; for pest or weed control at 6.25 µg/mL / pest or weed control at 25 µg/mL / pest or weed control at 100 µg/mL / pest or weed control at 400 µg/mL: protectant activity; for pest or weed control at 25 µg/mL: read-out: control effect against wheat powdery mildew (%), 25 mg/L; for pest or weed control at 100 µg/mL: read-out: control effect against wheat powdery mildew (%), 100 mg/L; for pest or weed control at 400 µg/mL: read-out: control effect against wheat powdery mildew (%), 400 mg/L.

Another test has as its system cucumber downy mildew. The experiment in a line: protectant activity in vivo against cucumber downy mildew. The note with it: for pest or weed control at 25 ppm: read-out: protectant activity against cucumber downy mildew in vivo, 25 ppm; for pest or weed control at 100 ppm: read-out: protectant activity against cucumber downy mildew in vivo, 100 ppm; for pest or weed control at 400 ppm: read-out: protectant activity against cucumber downy mildew in vivo, 400 ppm.

The test system of test [1] is Green peach aphids (Myzus Persicae Sulzer). The test is described as follows: bioactivity test against green peach aphid, airbrush foliar spray. Type of test: in vivo. In a few lines:
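Aphids (15-30 per cabbage leaf disc) on moist filter paper were airbrush-sprayed at 10 psi, 0.5 mL, with compound from acetone:methanol (1:1) diluted in water with 0.1% tween 80. Held at 25±1 C, 60±5% RH; survivors counted after 48 hrs to give death rates.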

Where [2] appears, read: 600 ppm, mortality after 72 hrs.
The mark [3] stands for this setting: 10 ppm, death rate after 48 hrs.
[4] abbreviates: 100 ppm, death rate after 48 hrs.
The mark [5] stands for this setting: 600 ppm, death rate after 48 hrs.
Setting [6] is: 100 ppm, mortality after 72 hrs.

Take `FC(F)(F)c1cnc(Oc2ccc(CCNc3ncnc(Cl)c3Cl)cc2)c(Cl)c1` [CK72, reference compound]: the pest or weed control at 600 µg/mL in the test on Diamond back moth (72 h, 600 mg/L) is 0%; with armyworm (72 h, 600 mg/L, read-out: Insecticidal activity against armyworm (%)), 71%; in the test with carmine spider mite (Tetranychus cinnabarinus, 72 h, 600 mg/L, contrastive test, read-out: Insecticidal activity against carmine spider mite (% )), 13%; in test [1] (Myzus persicae, foliar, 48 h, 600 mg/L, contrastive test, read-out: Insecticidal activity against peach aphid (%)), 55%. Moreover, the pest or weed control at 6.25 µg/mL in the test with corn rust (Zea mays, 168 h, read-out: control effect against corn rust (%), 6.25 mg/L, protectant activity) amounted to 0%; in the test on wheat powdery mildew (Triticum aestivum, 168 h), 50%. Besides, the pest or weed control at 25 µg/mL in the test with corn rust (Zea mays, 168 h, read-out: control effect against corn rust (%), 25 mg/L, protectant activity) is 20%; with wheat powdery mildew (Triticum aestivum, 168 h) it was 60%; in the test with cucumber downy mildew (Cucumis sativus, 168 h, read-out: control effect against cucumber downy mildew (%), 25 mg/L, protectant activity), 20%. The pest or weed control at 100 µg/mL in the test on corn rust (Zea mays, 168 h, read-out: control effect against corn rust (%), 100 mg/L, protectant activity) was found to be 80%; with wheat powdery mildew (Triticum aestivum, 168 h) it was 70%; with cucumber downy mildew (Cucumis sativus, 168 h, read-out: control effect against cucumber downy mildew (%), 100 mg/L, protectant activity), 100%. In addition, the pest or weed control at 400 µg/mL turned out to be 100% in the test with corn rust (Zea mays, 168 h, read-out: control effect against corn rust (%), 400 mg/L, protectant activity); 100% with wheat powdery mildew (Triticum aestivum, 168 h); 100% in the test with cucumber downy mildew (Cucumis sativus, 168 h, read-out: control effect against cucumber downy mildew (%), 400 mg/L, protectant activity). Moreover, in the test on cucumber downy mildew (Cucumis sativus, 168 h, read-out: control effect against cucumber downy mildew (%), 50 mg/L, protectant activity), the pest or weed control at 50 µg/mL was determined as 40%.

As for `CCc1ncnc(NCCc2ccc(Oc3ncc(Cl)cc3Cl)cc2)c1Cl` [Compound I-583], the pest or weed control at 600 ppm amounted to 100% in the test with Diamond back moth (72 h, 600 ppm, mortality after 72 hrs, read-out: control (test results against diamond back moth)); 100% in the test on armyworm (72 h, 600 ppm, mortality after 72 h); 100% in the test with carmine spider mite (Tetranychus cinnabarinus, 72 h, 600 ppm, mortality after 72 hrs); 100% in test [1] (Myzus persicae, foliar, 48 h, 600 ppm, death rate after 48 hrs). Besides, the pest or weed control at 25 ppm is 100% in the test with corn rust (Zea mays, 168 h, read-out: protectant activity against corn rust in vivo, 25 ppm) and 100% with cucumber downy mildew (Cucumis sativus, 168 h). Also, the pest or weed control at 100 ppm in the test with corn rust (Zea mays, 168 h, read-out: protectant activity against corn rust in vivo, 100 ppm) is 100%; in the test with wheat powdery mildew (Triticum aestivum, 168 h, read-out: protectant activity against wheat powdery mildew in vivo, 100 ppm), 80 to 99%; with cucumber downy mildew (Cucumis sativus, 168 h) it was 100%; in test [1] (Myzus persicae, foliar, 48 h, 100 ppm, death rate after 48 hrs), 100%. Besides, the pest or weed control at 400 ppm in the test with corn rust (Zea mays, 168 h, read-out: protectant activity against corn rust in vivo, 400 ppm) was 100%; with wheat powdery mildew (Triticum aestivum, 168 h, read-out: protectant activity against wheat powdery mildew in vivo, 400 ppm) it was 80 to 99%; with cucumber downy mildew (Cucumis sativus, 168 h), 100%. Also, in the test with cucumber downy mildew (Cucumis sativus, 168 h, read-out: protectant activity against cucumber downy mildew in vivo, 50 ppm), the pest or weed control at 50 ppm was 80 to 99%. Besides, in test [1] (Myzus persicae, foliar, 48 h, 10 ppm, death rate after 48 hrs), the pest or weed control at 10 ppm lay within 80 to 99%.

`Cc1ncnc(NCCc2ccc(Oc3ccc(C(F)(F)F)cn3)cc2)c1Cl` [Compound I-6732]: the “control (test results against diamond back moth)” value with Diamond back moth (setting [2]) was 100%. The “control (test results against armyworm)” value in the test with armyworm (600 ppm, mortality after 72 h) is listed as 100%. For the same compound, the “control against carmine spider mite” value with carmine spider mite (setting [2]) was determined as 100%. In the test on carmine spider mite (Tetranychus cinnabarinus, 72 h, 100 ppm, mortality after 72 hrs), the pest or weed control at 100 ppm was found to be 100%. In addition, the “protectant activity against corn rust in vivo” value with corn rust (100 ppm) and in the test with corn rust (400 ppm) was 100% throughout. Also, in the test on corn rust (Zea mays, 168 h, read-out: protectant activity against corn rust in vivo, 6.25 ppm), the pest or weed control at 6.25 ppm is 80 to 99%. In addition, the “protectant activity against wheat powdery mildew in vivo” value in the test on wheat powdery mildew (400 ppm) amounted to 100%. The “protectant activity against cucumber downy mildew in vivo” value in the test with cucumber downy mildew (25 ppm), in the test on cucumber downy mildew (100 ppm) and with cucumber downy mildew (400 ppm) was 100% throughout. Besides, the “control (test results against green peach aphid)” value in test [1] (setting [3]), in test [1] (setting [4]) and in test [1] (setting [5]) was 100% throughout.

Consider `CCc1ncnc(NCCc2ccc(Oc3ccc(C(F)(F)F)cn3)cc2)c1Cl` [Compound I-6740], for which the “control (test results against diamond back moth)” value in the test with Diamond back moth (setting [6]) and in the test on Diamond back moth (setting [2]) was 100% in each case. Further, the “control (test results against armyworm)” value with armyworm (100 ppm, mortality after 72 h) came out at 100%; in the test with armyworm (600 ppm, mortality after 72 h), 100%. Moreover, the “Insecticidal activity against carmine spider mite (% )” value in the test on carmine spider mite (10 mg/L, contrastive test) stood at 85%; in the test with carmine spider mite (100 mg/L, contrastive test) it was 100%; in the test on carmine spider mite (600 mg/L, contrastive test) it was 100%. Besides, the “control against carmine spider mite” value with carmine spider mite (setting [6]) and in the test on carmine spider mite (setting [2]) was 100% each time. The compound also came in with a pest or weed control at 10 ppm in the test with carmine spider mite (Tetranychus cinnabarinus, 72 h, 10 ppm, mortality after 72 hrs) of 80 to 99%. In addition, the “protectant activity against corn rust in vivo” value in the test with corn rust (100 ppm) and in the test on corn rust (400 ppm) was 100% each time. Further, the “protectant activity against wheat powdery mildew in vivo” value in the test on wheat powdery mildew (25 ppm), with wheat powdery mildew (100 ppm) and in the test on wheat powdery mildew (400 ppm) was 100% throughout. In the test with cucumber downy mildew (Cucumis sativus, 168 h), the pest or weed control at 100 ppm stood at 100%. Also, in the test on cucumber downy mildew (Cucumis sativus, 168 h), the pest or weed control at 400 ppm was found to be 100%. Moreover, the “control (test results against green peach aphid)” value in test [1] (5 ppm, death rate after 48 hrs) was 100%; in test [1] (setting [3]), 100%; in test [1] (setting [4]) it was 100%; in test [1] (setting [5]) it was 100%.

Consider `CCc1ncnc(NCCc2ccc(Oc3ccc(C(F)(F)F)cn3)cc2)c1Cl` [Compound I-6765], for which the “control (test results against diamond back moth)” value with Diamond back moth (setting [6]) and with Diamond back moth (setting [2]) was 100% each time. The “control (test results against armyworm)” value in the test with armyworm (600 ppm, mortality after 72 h) is on record as 100%. Also, in the test on armyworm (72 h, 100 ppm, mortality after 72 h), the pest or weed control at 100 ppm was 100%. The “Insecticidal activity against carmine spider mite (% )” value was found to be 100% with carmine spider mite (10 mg/L, contrastive test); 100% in the test with carmine spider mite (100 mg/L, contrastive test); 100% in the test with carmine spider mite (600 mg/L, contrastive test). Besides, the “control against carmine spider mite” value in the test with carmine spider mite (10 ppm, mortality after 72 hrs) was found to be 100%; with carmine spider mite (setting [6]), 100%; in the test on carmine spider mite (setting [2]), 100%. In addition, the “protectant activity against corn rust in vivo” value in the test on corn rust (100 ppm) and in the test on corn rust (400 ppm) was 100% each time. Further, the “protectant activity against wheat powdery mildew in vivo” value with wheat powdery mildew (6.25 ppm), in the test on wheat powdery mildew (100 ppm) and with wheat powdery mildew (400 ppm) was 100% each time. Besides, the pest or weed control at 6.25 µg/mL in the test with wheat powdery mildew (Triticum aestivum, 168 h) amounted to 100%. For the same compound, the pest or weed control at 25 µg/mL in the test on wheat powdery mildew (Triticum aestivum, 168 h) was 100%. For the same compound, the pest or weed control at 100 µg/mL in the test on wheat powdery mildew (Triticum aestivum, 168 h) worked out at 100%. Besides, the pest or weed control at 400 µg/mL in the test with wheat powdery mildew (Triticum aestivum, 168 h) is 100%. Besides, the pest or weed control at 25 ppm in the test with wheat powdery mildew (Triticum aestivum, 168 h, read-out: protectant activity against wheat powdery mildew in vivo, 25 ppm) was 100%; in the test on cucumber downy mildew (Cucumis sativus, 168 h), 100%. For the same compound, the “protectant activity against cucumber downy mildew in vivo” value in the test with cucumber downy mildew (50 ppm), in the test on cucumber downy mildew (100 ppm) and with cucumber downy mildew (400 ppm) was 100% in each case. Moreover, the pest or weed control at 6.25 ppm with cucumber downy mildew (Cucumis sativus, 168 h, read-out: protectant activity against cucumber downy mildew in vivo, 6.25 ppm) was 80 to 99%. Further, the pest or weed control at 12.5 ppm with cucumber downy mildew (Cucumis sativus, 168 h, read-out: protectant activity against cucumber downy mildew in vivo, 12.5 ppm) was in the range of 80 to 99%. The “Insecticidal activity against peach aphid (%)” value in test [1] (1.25 mg/L, contrastive test) came to 84%; in test [1] (2.5 mg/L, contrastive test), 100%; in test [1] (5 mg/L, contrastive test), 100%; in test [1] (10 mg/L, contrastive test), 100%; in test [1] (100 mg/L, contrastive test), 100%; in test [1] (600 mg/L, contrastive test) it was 100%. The “control (test results against green peach aphid)” value in test [1] (2.5 ppm, death rate after 48 hrs) was 100%; in test [1] (5 ppm, death rate after 48 hrs), 100%; in test [1] (setting [3]) it was 100%; in test [1] (setting [4]), 100%; in test [1] (setting [5]), 100%.
